≈ marks a conversion by molar mass, not a printed value.
Tested on: not listed separately
Assay: Intrinsic clearance in human liver microsomes
Conditions: not given

SMILES	microsomal CLint [µL/min/mg]
CCc1nc2ccn(Cc3ccccc3C)c(=O)c2n1[C@H]1CCc2cc(-c3ccccc3-c3nnn[nH]3)ccc21	32.6
CCc1nc2ccn(Cc3ccccc3C#N)c(=O)c2n1[C@H]1CCc2cc(-c3ccccc3-c3nnn[nH]3)ccc21	14
CCc1nc2c(C)cn(Cc3ccccc3C#N)c(=O)c2n1[C@H]1CCc2cc(-c3ccccc3-c3nnn[nH]3)ccc21	20.7
CCc1nc2c(C)cn(Cc3ccccc3C)c(=O)c2n1[C@H]1CCc2cc(-c3ccccc3-c3nnn[nH]3)ccc21	37.5

Tested on: not listed separately
Assay: Permeability of the compound by PAMPA
Assay type: ADME
Conditions: read-out: permeability

SMILES	Papp [×10⁻⁶ cm/s]
CCc1nc2ccn(Cc3ccccc3C)c(=O)c2n1[C@H]1CCc2cc(-c3ccccc3-c3nnn[nH]3)ccc21	3.6
CCc1nc2ccn(Cc3ccccc3C#N)c(=O)c2n1[C@H]1CCc2cc(-c3ccccc3-c3nnn[nH]3)ccc21	10.7
CCc1nc2c(C)cn(Cc3ccccc3C#N)c(=O)c2n1[C@H]1CCc2cc(-c3ccccc3-c3nnn[nH]3)ccc21	19
CCc1nc2c(C)cn(Cc3ccccc3C)c(=O)c2n1[C@H]1CCc2cc(-c3ccccc3-c3nnn[nH]3)ccc21	7

Biological target: Cytochrome P450 2D6 (Homo sapiens, UniProt P10635)
Sequence (P10635 whole entry): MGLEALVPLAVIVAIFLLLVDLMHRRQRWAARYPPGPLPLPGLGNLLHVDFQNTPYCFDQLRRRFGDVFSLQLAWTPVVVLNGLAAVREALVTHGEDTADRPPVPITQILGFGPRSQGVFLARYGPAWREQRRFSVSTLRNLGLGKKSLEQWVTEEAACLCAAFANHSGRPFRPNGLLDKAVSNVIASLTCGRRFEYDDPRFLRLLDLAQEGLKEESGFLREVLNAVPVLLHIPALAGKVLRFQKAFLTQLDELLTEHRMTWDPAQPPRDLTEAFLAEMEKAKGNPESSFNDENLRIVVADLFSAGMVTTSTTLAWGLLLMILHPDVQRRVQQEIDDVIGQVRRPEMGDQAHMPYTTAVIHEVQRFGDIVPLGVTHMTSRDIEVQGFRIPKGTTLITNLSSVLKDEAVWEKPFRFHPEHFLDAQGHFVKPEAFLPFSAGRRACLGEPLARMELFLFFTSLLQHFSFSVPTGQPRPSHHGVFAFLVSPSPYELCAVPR
Assay: Inhibition of CYP2D6 (unknown origin)
Assay type: ADME
Conditions: not given

SMILES	inhibition (INH) [%]
CCc1nc2ccn(Cc3ccccc3C)c(=O)c2n1[C@H]1CCc2cc(-c3ccccc3-c3nnn[nH]3)ccc21	6
CCc1nc2ccn(Cc3ccccc3C#N)c(=O)c2n1[C@H]1CCc2cc(-c3ccccc3-c3nnn[nH]3)ccc21	11
CCc1nc2c(C)cn(Cc3ccccc3C#N)c(=O)c2n1[C@H]1CCc2cc(-c3ccccc3-c3nnn[nH]3)ccc21	0
CCc1nc2c(C)cn(Cc3ccccc3C)c(=O)c2n1[C@H]1CCc2cc(-c3ccccc3-c3nnn[nH]3)ccc21	4.5

Tested on: not listed separately
Assay: Kinetic solubility of the compound in potassium phosphate buffer at pH 6.5
Assay type: physicochemical
Conditions: read-out: Kinetic_solubility

SMILES	solubility kinetic [µM]
CCc1nc2ccn(Cc3ccccc3C)c(=O)c2n1[C@H]1CCc2cc(-c3ccccc3-c3nnn[nH]3)ccc21	3.5 (≈ 1.85 µg/mL)
CCc1nc2ccn(Cc3ccccc3C#N)c(=O)c2n1[C@H]1CCc2cc(-c3ccccc3-c3nnn[nH]3)ccc21	11.7 (≈ 6.3 µg/mL)
CCc1nc2c(C)cn(Cc3ccccc3C#N)c(=O)c2n1[C@H]1CCc2cc(-c3ccccc3-c3nnn[nH]3)ccc21	5.2 (≈ 2.87 µg/mL)

Biological target: T1, Peroxisome proliferator-activated receptor gamma (Homo sapiens, UniProt P37231)
T1 sequence (P37231 whole entry): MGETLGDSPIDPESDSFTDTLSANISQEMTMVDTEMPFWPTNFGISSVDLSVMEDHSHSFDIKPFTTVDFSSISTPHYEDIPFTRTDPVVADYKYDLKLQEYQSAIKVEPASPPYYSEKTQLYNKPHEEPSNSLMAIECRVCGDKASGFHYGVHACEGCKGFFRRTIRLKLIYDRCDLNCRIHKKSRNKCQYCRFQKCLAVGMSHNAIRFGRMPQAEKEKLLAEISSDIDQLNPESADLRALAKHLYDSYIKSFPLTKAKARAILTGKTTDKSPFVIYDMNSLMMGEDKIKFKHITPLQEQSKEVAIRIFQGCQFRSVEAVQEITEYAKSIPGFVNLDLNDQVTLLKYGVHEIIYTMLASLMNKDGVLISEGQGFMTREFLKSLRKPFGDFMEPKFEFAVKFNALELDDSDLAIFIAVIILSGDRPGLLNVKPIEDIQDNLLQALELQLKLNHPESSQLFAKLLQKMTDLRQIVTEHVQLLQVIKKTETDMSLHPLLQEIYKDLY
Assay: Partial agonist activity at human PPARgamma-LBD/Gal4 DNA binding domain by transactivation assay
Conditions: not given

SMILES	EC50 [nM]
CCc1nc2ccn(Cc3ccccc3F)c(=O)c2n1[C@H]1CCc2cc(-c3ccccc3-c3nnn[nH]3)ccc21	103
CCc1nc2ccn(Cc3ccccc3C)c(=O)c2n1[C@H]1CCc2cc(-c3ccccc3-c3nnn[nH]3)ccc21	97
CCc1nc2cc[nH]c(=O)c2n1[C@H]1CCc2cc(-c3ccccc3-c3nnn[nH]3)ccc21	> 100000
CCc1nc2ccn(Cc3ccccn3)c(=O)c2n1[C@H]1CCc2cc(-c3ccccc3-c3nnn[nH]3)ccc21	3580
CCc1nc2ccn(CC(=O)OCc3ccccc3)c(=O)c2n1[C@H]1CCc2cc(-c3ccccc3-c3nnn[nH]3)ccc21	1250
CCc1nc2ccn(Cc3ccncc3)c(=O)c2n1[C@H]1CCc2cc(-c3ccccc3-c3nnn[nH]3)ccc21	> 25000
CCc1nc2ccn(CC3CCCCC3)c(=O)c2n1[C@H]1CCc2cc(-c3ccccc3-c3nnn[nH]3)ccc21	942
CCc1nc2ccn(Cc3cccc(C(F)(F)F)c3)c(=O)c2n1[C@H]1CCc2cc(-c3ccccc3-c3nnn[nH]3)ccc21	449
CCc1nc2ccn(CC(=O)O)c(=O)c2n1[C@H]1CCc2cc(-c3ccccc3-c3nnn[nH]3)ccc21	> 100000
CCc1nc2ccn(Cc3cccnc3)c(=O)c2n1[C@H]1CCc2cc(-c3ccccc3-c3nnn[nH]3)ccc21	3640
CCc1nc2ccn(Cc3cccc(F)c3)c(=O)c2n1[C@H]1CCc2cc(-c3ccccc3-c3nnn[nH]3)ccc21	159
CCc1nc2ccn(CC(=O)N(C)C)c(=O)c2n1[C@H]1CCc2cc(-c3ccccc3-c3nnn[nH]3)ccc21	> 100000
CCc1nc2ccn(CC(C)C)c(=O)c2n1[C@H]1CCc2cc(-c3ccccc3-c3nnn[nH]3)ccc21	1710
CCc1nc2ccn(Cc3cccc(C)c3)c(=O)c2n1[C@H]1CCc2cc(-c3ccccc3-c3nnn[nH]3)ccc21	108
CCc1nc2ccn(Cc3ccccc3C(F)(F)F)c(=O)c2n1[C@H]1CCc2cc(-c3ccccc3-c3nnn[nH]3)ccc21	187
CCc1nc2ccn(Cc3c(C)noc3C)c(=O)c2n1[C@H]1CCc2cc(-c3ccccc3-c3nnn[nH]3)ccc21	4470
CCc1nc2ccn(Cc3ccccc3)c(=O)c2n1[C@H]1CCc2cc(-c3ccccc3-c3nnn[nH]3)ccc21	292
CCc1nc2ccn(Cc3ccccc3OC(F)(F)F)c(=O)c2n1[C@H]1CCc2cc(-c3ccccc3-c3nnn[nH]3)ccc21	20
CCc1nc2ccn(Cc3ccccc3C#N)c(=O)c2n1[C@H]1CCc2cc(-c3ccccc3-c3nnn[nH]3)ccc21	685
CCc1nc2c(C)cn(Cc3ccccc3C#N)c(=O)c2n1[C@H]1CCc2cc(-c3ccccc3-c3nnn[nH]3)ccc21	295
CCc1nc2c(C)cn(Cc3ccccc3C)c(=O)c2n1[C@H]1CCc2cc(-c3ccccc3-c3nnn[nH]3)ccc21	42

Biological target: Cytochrome P450 3A4 (Homo sapiens, UniProt P08684)
Sequence (P08684 whole entry): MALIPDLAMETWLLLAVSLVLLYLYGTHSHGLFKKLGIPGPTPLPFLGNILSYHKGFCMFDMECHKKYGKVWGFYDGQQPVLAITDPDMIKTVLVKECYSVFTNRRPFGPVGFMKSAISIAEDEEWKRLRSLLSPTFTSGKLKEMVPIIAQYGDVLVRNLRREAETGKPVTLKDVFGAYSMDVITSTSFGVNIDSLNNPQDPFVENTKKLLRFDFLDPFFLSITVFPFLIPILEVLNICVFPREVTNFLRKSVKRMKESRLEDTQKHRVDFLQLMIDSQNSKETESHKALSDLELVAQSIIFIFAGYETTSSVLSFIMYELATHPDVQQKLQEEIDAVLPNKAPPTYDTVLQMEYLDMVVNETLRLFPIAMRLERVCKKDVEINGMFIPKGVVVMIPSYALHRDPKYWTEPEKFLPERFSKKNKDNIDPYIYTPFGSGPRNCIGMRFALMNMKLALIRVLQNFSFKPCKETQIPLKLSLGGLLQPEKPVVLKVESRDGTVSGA
Assay: Inhibition of CYP3A4 (unknown origin)
Assay type: ADME
Conditions: not given

SMILES	inhibition (INH) [%]
CCc1nc2ccn(Cc3ccccc3C)c(=O)c2n1[C@H]1CCc2cc(-c3ccccc3-c3nnn[nH]3)ccc21	14
CCc1nc2ccn(Cc3ccccc3C#N)c(=O)c2n1[C@H]1CCc2cc(-c3ccccc3-c3nnn[nH]3)ccc21	31
CCc1nc2c(C)cn(Cc3ccccc3C#N)c(=O)c2n1[C@H]1CCc2cc(-c3ccccc3-c3nnn[nH]3)ccc21	0
CCc1nc2c(C)cn(Cc3ccccc3C)c(=O)c2n1[C@H]1CCc2cc(-c3ccccc3-c3nnn[nH]3)ccc21	3.5

Biological target: T2, Peroxisome proliferator-activated receptor alpha (Homo sapiens, UniProt Q07869)
T2 sequence (Q07869 whole entry): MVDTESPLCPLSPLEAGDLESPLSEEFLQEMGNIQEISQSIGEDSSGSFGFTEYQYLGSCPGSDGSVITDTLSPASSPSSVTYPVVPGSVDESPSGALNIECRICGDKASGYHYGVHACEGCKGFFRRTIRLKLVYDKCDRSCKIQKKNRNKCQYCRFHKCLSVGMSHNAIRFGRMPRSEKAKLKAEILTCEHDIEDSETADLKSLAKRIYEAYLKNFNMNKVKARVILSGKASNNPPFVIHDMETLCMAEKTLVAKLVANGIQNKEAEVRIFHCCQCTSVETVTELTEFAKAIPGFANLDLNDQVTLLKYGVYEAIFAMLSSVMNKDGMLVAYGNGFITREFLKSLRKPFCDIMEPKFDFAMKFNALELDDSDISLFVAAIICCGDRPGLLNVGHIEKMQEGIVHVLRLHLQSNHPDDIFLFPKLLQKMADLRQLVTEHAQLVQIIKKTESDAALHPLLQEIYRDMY
Assay: Agonist activity at PPARalpha (unknown origin)
Conditions: not given

SMILES	EC50 [nM]
CCc1nc2ccn(Cc3ccccc3)c(=O)c2n1[C@H]1CCc2cc(-c3ccccc3-c3nnn[nH]3)ccc21	> 50000

Biological target: T3, Peroxisome proliferator-activated receptor delta (Homo sapiens, UniProt Q03181)
T3 sequence (Q03181 whole entry): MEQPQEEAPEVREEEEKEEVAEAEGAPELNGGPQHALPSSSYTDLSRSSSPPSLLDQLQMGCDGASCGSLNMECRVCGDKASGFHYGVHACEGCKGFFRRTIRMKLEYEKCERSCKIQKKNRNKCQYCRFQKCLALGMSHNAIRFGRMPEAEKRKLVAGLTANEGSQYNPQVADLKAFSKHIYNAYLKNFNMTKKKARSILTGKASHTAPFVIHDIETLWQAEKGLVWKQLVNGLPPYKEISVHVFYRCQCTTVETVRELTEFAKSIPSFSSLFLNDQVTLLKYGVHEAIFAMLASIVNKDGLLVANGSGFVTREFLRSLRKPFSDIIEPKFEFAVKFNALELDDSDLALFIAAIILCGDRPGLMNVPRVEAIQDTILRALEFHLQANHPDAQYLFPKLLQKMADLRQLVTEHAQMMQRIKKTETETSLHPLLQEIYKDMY
Assay: Agonist activity at PPARbeta (unknown origin)
Conditions: not given

SMILES	EC50 [nM]
CCc1nc2ccn(Cc3ccccc3)c(=O)c2n1[C@H]1CCc2cc(-c3ccccc3-c3nnn[nH]3)ccc21	> 50000

Tested on: not listed separately
Assay: Octanol-buffer distribution co-efficient, log D of the compound by shake-flask method
Assay type: physicochemical
Conditions: not given

SMILES	logD
CCc1nc2ccn(Cc3ccccc3C)c(=O)c2n1[C@H]1CCc2cc(-c3ccccc3-c3nnn[nH]3)ccc21	2.6
CCc1nc2ccn(Cc3ccccc3C#N)c(=O)c2n1[C@H]1CCc2cc(-c3ccccc3-c3nnn[nH]3)ccc21	1.7
CCc1nc2c(C)cn(Cc3ccccc3C#N)c(=O)c2n1[C@H]1CCc2cc(-c3ccccc3-c3nnn[nH]3)ccc21	2.5
CCc1nc2c(C)cn(Cc3ccccc3C)c(=O)c2n1[C@H]1CCc2cc(-c3ccccc3-c3nnn[nH]3)ccc21	2.9

Biological target: T4, Type-1 angiotensin II receptor (Homo sapiens, UniProt P30556)
T4 sequence (P30556 whole entry): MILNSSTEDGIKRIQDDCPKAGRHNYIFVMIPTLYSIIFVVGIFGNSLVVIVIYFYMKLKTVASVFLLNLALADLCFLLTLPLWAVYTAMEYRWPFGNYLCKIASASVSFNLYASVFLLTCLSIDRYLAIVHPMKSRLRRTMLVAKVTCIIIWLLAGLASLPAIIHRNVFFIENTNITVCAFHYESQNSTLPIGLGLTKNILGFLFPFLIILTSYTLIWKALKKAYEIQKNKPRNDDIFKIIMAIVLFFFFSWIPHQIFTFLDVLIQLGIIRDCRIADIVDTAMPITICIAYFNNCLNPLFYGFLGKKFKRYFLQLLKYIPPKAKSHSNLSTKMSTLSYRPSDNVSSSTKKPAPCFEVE
Conditions: not given

SMILES	IC50 [nM]
CCc1nc2ccn(Cc3ccccc3F)c(=O)c2n1[C@H]1CCc2cc(-c3ccccc3-c3nnn[nH]3)ccc21	37.7
CCc1nc2ccn(Cc3ccccc3C)c(=O)c2n1[C@H]1CCc2cc(-c3ccccc3-c3nnn[nH]3)ccc21	5.1
CCc1nc2cc[nH]c(=O)c2n1[C@H]1CCc2cc(-c3ccccc3-c3nnn[nH]3)ccc21	593
CCc1nc2ccn(Cc3ccccn3)c(=O)c2n1[C@H]1CCc2cc(-c3ccccc3-c3nnn[nH]3)ccc21	63.8
CCc1nc2ccn(CC(=O)OCc3ccccc3)c(=O)c2n1[C@H]1CCc2cc(-c3ccccc3-c3nnn[nH]3)ccc21	19.8
CCc1nc2ccn(Cc3ccncc3)c(=O)c2n1[C@H]1CCc2cc(-c3ccccc3-c3nnn[nH]3)ccc21	250
CCc1nc2ccn(CC3CCCCC3)c(=O)c2n1[C@H]1CCc2cc(-c3ccccc3-c3nnn[nH]3)ccc21	41
CCc1nc2ccn(Cc3cccc(C(F)(F)F)c3)c(=O)c2n1[C@H]1CCc2cc(-c3ccccc3-c3nnn[nH]3)ccc21	81.6
CCc1nc2ccn(CC(=O)O)c(=O)c2n1[C@H]1CCc2cc(-c3ccccc3-c3nnn[nH]3)ccc21	348
CCc1nc2ccn(Cc3cccnc3)c(=O)c2n1[C@H]1CCc2cc(-c3ccccc3-c3nnn[nH]3)ccc21	45.2
CCc1nc2ccn(Cc3cccc(F)c3)c(=O)c2n1[C@H]1CCc2cc(-c3ccccc3-c3nnn[nH]3)ccc21	67.4
CCc1nc2ccn(CC(=O)N(C)C)c(=O)c2n1[C@H]1CCc2cc(-c3ccccc3-c3nnn[nH]3)ccc21	24.4
CCc1nc2ccn(CC(C)C)c(=O)c2n1[C@H]1CCc2cc(-c3ccccc3-c3nnn[nH]3)ccc21	19.4
CCc1nc2ccn(Cc3cccc(C)c3)c(=O)c2n1[C@H]1CCc2cc(-c3ccccc3-c3nnn[nH]3)ccc21	36.9
CCc1nc2ccn(Cc3ccccc3C(F)(F)F)c(=O)c2n1[C@H]1CCc2cc(-c3ccccc3-c3nnn[nH]3)ccc21	94.1
CCc1nc2ccn(Cc3c(C)noc3C)c(=O)c2n1[C@H]1CCc2cc(-c3ccccc3-c3nnn[nH]3)ccc21	63.4
CCc1nc2ccn(Cc3ccccc3)c(=O)c2n1[C@H]1CCc2cc(-c3ccccc3-c3nnn[nH]3)ccc21	12.7
CCc1nc2ccn(Cc3ccccc3OC(F)(F)F)c(=O)c2n1[C@H]1CCc2cc(-c3ccccc3-c3nnn[nH]3)ccc21	29.3
CCc1nc2ccn(Cc3ccccc3C#N)c(=O)c2n1[C@H]1CCc2cc(-c3ccccc3-c3nnn[nH]3)ccc21	13.5
CCc1nc2c(C)cn(Cc3ccccc3C#N)c(=O)c2n1[C@H]1CCc2cc(-c3ccccc3-c3nnn[nH]3)ccc21	7
CCc1nc2c(C)cn(Cc3ccccc3C)c(=O)c2n1[C@H]1CCc2cc(-c3ccccc3-c3nnn[nH]3)ccc21	6.8

From ChEMBL document CHEMBL2321681, “Design, synthesis, and evaluation of imidazo[4,5-c]pyridin-4-one derivatives with dual activity at angiotensin II type 1 receptor and peroxisome proliferator-activated receptor-γ” (Bioorg Med Chem Lett, 2013)
